Source: US20100240754A1, “UNSATURATED FATTY AMINO ACID DERIVATIVES AND USE THEREOF IN DERMAL COSMETOLOGY” (Pierre Fabre Demo-Cosmetique, priority 2007, published 2010)
Entries after “also recorded” stand apart in the source; their conditions may differ. Read-outs that look alike come from different tables or passages of the source.

How the values were obtained:
fibroblast line L929 = experiment: Test of TBARS: lipid peroxidation after H2O2-Fe2+/Fe3+ stress; format: cell-based, murine; conditions: for inhibition at 20 pg/mL: Mus musculus, Dose = 0.02 ng/mL, L929, 16 hours pretreatment, H2O2-Fe2+/Fe3+ (200 μM-1 mM) 1 hour, TBARS, read-out: % of protection of membrane lipids, Average; for antiradical activity and protection of cell membranes, in words: L929, TBARS test, conclusion from Table 4
Source text: In order to evaluate membrane alteration, we have measured lipid peroxidation by an assay in vitro of the complexes between lipid oxidation products and thiobarbituric acid. These complexes are called TBARS (Thiobarbituric Acid Reactive Substances) and give the name to the test: Test of TBARS.
In order to mimic a chemical oxidative stress, we treated a fibroblast line, L929, with a complex composed of hydrogen peroxide (H2O2) and of iron (Fe^2+/Fe^3+) thereby regenerating Fenton's reaction, source of FORs and more particularly of hydroxyl radicals)(OH^0) (D. A. Vessey et al., 1992):
The products were evaluated on the murine fibroblast line L929. The cells were pretreated with the different concentrations of products for 16 hours and were then stimulated with the complex H2O2—Fe^2+/Fe^3+ (200 μM-1 mM) for 1 hour.
Mother solutions: 100 mg/mL, ethanol, 4° C. Final solutions: 0.02 ng/mL.
Peroxidation of membrane lipids is analyzed by measuring the TBARS (Procedure Ref. PL No. 2, according to Morlière et al., 1991).
In an acid medium, at 95° C., complexes noted as TBARS for Thio Barbituric Acid Reactive Substance are formed, between the lipid oxidation products (malonic dialdehyde or MDA) and thiobarbituric acid (TBA) which may be assayed by fluorescence relatively to a standard range with MDA. The dosage of the TBARS is then expressed in pmol/μg of proteins. The proteins and the TBARS are assayed in the intracellular medium.
From the calculation of the TBARS in pmol/μg of proteins, we calculated the protective efficiency of different products against oxidation of membrane lipids.
Seven independent experiments were conducted. During these experiments, various compounds were evaluated (with the test, it is not possible to evaluate more than 10 molecules at the same time). The compounds which were evaluated several times were selected according to the results obtained in the other test also measuring antiradical activity (test for assaying oxygen active species, OASes).

B16-F10 line = experiment: Synthesis of melanin, colorimetric assay, basal and after alpha MSH stimulation; format: cell-based, murine; conditions: B16-F10; for inhibition at 30 µg/mL: Mus musculus, 30 μg/mL
Experimental: 6.1) The modulating effect of unsaturated fatty amino-acid derivatives on melanogenesis was analyzed. For this, a measurement of the synthesis of melanin by a colorimetric assay is carried out on a cell line of murine melanomas: the B16-F10 line.
The effect of the products is investigated in a basal situation and after stimulating melanogenesis by a MSH for determining the depigmenting power.
The level of extracellular and intracellular melanin is then measured by spectrophotometry at a wave length of 405 nm according to the procedure (Meun, Y. J. et al.). The amount of pigment is determined by a standard range of melanin and by analysis on the Microwin software package (Berthold Biotechnologies). An assay of total proteins is conducted for samples of intracellular melanin by the BCA-Copper method at 540 nm. The standard range is produced with a standard protein, BSA (Bovine Albumin Serum).

production of IL8 = experiment: Production of interleukin 8 induced in keratinocytes by PMA and calcium ionophore A23187 (ELISA); format: cell-based; conditions: Keratinocyte; keratinocytes stimulated with PMA + A23187; read-out: effective dose 50 (DE50), production of IL8

Row | Compound | inhibition at 20 pg/mL (fibroblast line L929) [%] | antiradical activity and protection of cell membranes, in words (fibroblast line L929) | melting point [°C] | further results
1 | Cl.NCCC/C=C/C(=O)O [Compound No. 1, (E)-6-amino-hex-2-enoic acid] | 13.4 | – | – | –
2 | NCCC/C=C(/F)C(=O)O [Compound No. 2, (E)-6-amino-2-fluoro-hex-2-enoic acid] | 7.63 | – | – | –
3 | Cl.NCCCC/C=C/C(=O)O [Compound No. 4, (E)-7-amino-hept-2-enoic acid] | 8.75 | – | – | –
4 | NCCCCC=C(F)C(=O)O [Compound No. 5, (Z+E)-7-amino-2-fluoro-hept-2-enoic acid] | 36.3 | significant antiradical activity | – | pigmenting effect, in words (B16-F10 line): weaker than that of molecule No. 6
5 | Cl.NCCCCC/C=C/C(=O)O [Compound No. 7, (E)-8-amino-oct-2-enoic acid] | 48.3 | significant antiradical activity; also recorded: most significant antiradical activity | – | –
6 | Cl.NCCCCCC/C=C/C(=O)O [Compound No. 8, (E)-9-amino-non-2-enoic acid] | 56.6 | significant antiradical activity; also recorded: most significant antiradical activity | 104 | –
7 | Cl.NCCCCCCC=C(F)C(=O)O [Compound No. 9, 9-amino-2-fluoro-non-2-enoic acid] | 27.5 | significant antiradical activity | 120 | –
8 | Cl.NCCCCCCCCCCCC=C(F)C(=O)O [Compound No. 10, 14-amino-2-fluoro-tetradec-2-enoic acid] | 23.9 | significant antiradical activity | 148.5 | –
9 | Cl.NCCCCCCCCCCC/C=C/C(=O)O [Compound No. 11, (E)-14-amino-tetradec-2-enoic acid] | -26.3 | – | 153 | effect on the synthesis of melanin, in words (B16-F10 line; 10 μg/mL): without any effect; inhibition at 30 µg/mL (B16-F10 line; read-out: inhibition of the amount of extra-cellular melanin): 30%; inhibition at 30 µg/mL (B16-F10 line; read-out: inhibition of the amount of intra-cellular melanin): ~45%; EC50 (production of IL8): 11 µg/mL
10 | NCCC/C=C(\F)C(=O)O [compound 3, (Z)-6-amino-2-fluoro-hex-2-enoic acid] | -4 | – | – | –
11 | NCCCC/C=C(\F)C(=O)O [compound 6, (Z)-7-amino-2-fluoro-hept-2-enoic acid] | 49.8 | significant antiradical activity; also recorded: most significant antiradical activity | – | increase of the amount of intracellular melanin (B16-F10 line; 3, 10 and 30 μg/mL): about 100%
